Where two headings read alike, the source gives them in different places.
Target: T1, HheG (Ilumatobacter coccineus, UniProt Z9P531QQL2, M65F, form not given)
T1 construct: homotetramer
T1 sequence (Z9P531QQL2 21-282 M65F): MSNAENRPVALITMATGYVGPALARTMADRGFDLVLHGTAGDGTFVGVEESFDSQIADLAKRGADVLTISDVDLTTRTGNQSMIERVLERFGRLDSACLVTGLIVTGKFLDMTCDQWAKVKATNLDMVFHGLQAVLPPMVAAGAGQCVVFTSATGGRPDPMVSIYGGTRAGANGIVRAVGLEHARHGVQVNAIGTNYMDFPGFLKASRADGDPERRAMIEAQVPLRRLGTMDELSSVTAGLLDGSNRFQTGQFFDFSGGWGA
Test: BTB (bromothymol blue) pH-indicator assay, initial rates, Hill fit
Type: biochemical
Settings: 2 mM MOPS pH 7.0
Text: BTB (bromothymol blue) pH-indicator assay, initial rates, Hill fit on HheG

Row | Km (azide fixed at 60 mM, Hill coefficient n 3.33 ± 0.27, read-out: cyclohexene oxide / K50) [mM] | SMILES | Km (cyclohexene oxide fixed at 100 mM, Hill coefficient n 3.94 ± 0.29, read-out: azide / K50) [mM]
1 | – | [N-]=[N+]=[N-] [azide] | 10.1 ± 0.21
2 | 28 ± 0.64 | C1CCC2OC2C1 (centres unmarked) [compound 1, cyclohexene oxide] | –
